Assay results taken from US20250213649A1, “PEPTIDE HAVING ANTI-INFLAMMATORY AND ANTI-FIBROTIC ACTIVITIES AND USE THEREOF” (CAREGEN CO., LTD., priority 2022, published 2025).

Experiments:
MRC-5 cells = assay: Western blotting of LPS-induced inflammatory cytokine/signaling proteins, MRC-5 cells; format: cell-based; settings: 5 μg/ml LPS, peptide 10, 50, 100, 500 μM, 24 hours, Western blot (FIG. 3)
Description: MRC-5 cells (lung fibroblast cells) were seeded at 2×10^5 cells/well in a 6-well plate and used in the experiment. After culturing for 1 day with a culture medium containing 10% FBS, the culture medium was replaced with a culture medium without containing FBS to induce starvation for 4 hours. Cells of a normal group without being treated with any substances, a group treated with 5 μg/ml of LPS (Sigma Aldrich) (negative control group), groups treated with 5 μg/ml of LPS and the peptide of Production Example 1 (10, 50, 100, 500 μM), and a group treated with 5 μg/ml of LPS and 10 μM of Dexamethasone (DEX) (positive control group) were treated with active substances and drugs respectively and then cultured for 24 hours. The cultured cells of each treatment group and control group were lysed by adding a lysis buffer, and then centrifugation was carried out at 4° C. at 12,000 rpm for 30 minutes to obtain proteins, which were subsequently quantified using a BCA Protein Assay kit (Sigma). The proteins were subjected to SDS-PAGE (sodium dodecyl sulfate-polyacrylamide gel electrophoresis) and then subjected to electrotransfer to a membrane. The membrane to which the proteins were attached was treated with 5% skim milk for blocking and then subjected to a reaction with a primary antibody overnight at 4° C. After washing with PBS-T, the membrane was subjected to a reaction with a secondary antibody at room temperature for 1 hour, washed again with PBS-T, and then visualized by a Western detection reagent (Elpis Biotech, Daejeon, Korea) using Gel Doc (Bio-Rad, Hercules, CA, USA). The antibodies used in the experiment are as follows. An Anti-IL-1β antibody (Cell signaling technology (CST), USA), an anti-IL-6 antibody (Santa Cruz Biotechnology, USA), an anti-pJNK antibody (Santa Cruz Biotechnology, USA), an anti-pERK antibody (Cell signaling technology (CST), USA), and an anti-β-Actin antibody (Santa Cruz Biotechnology, USA).

[1] = BLM-induced pulmonary fibrosis model, body weight change; format: in vivo; settings: BALB/c male mice with BLM-induced pulmonary fibrosis, peptide 1 mg/mouse intranasal three times a week for 14 days from 7th day (FIG. 13a)
Description: As shown in [Table 6] below, 8-week-old BALB/c male mice were divided into 4 groups of 5 mice each. On the 1st day, a Bleomycin solution ([…]/50 μl/mouse) was administered through the oropharynx to carry out one time of induction with BLM. Then, from the 7th day, the peptide of Production Example 1 (1 mg/mouse) was administered intranasally three times a week for 14 days, and Pirfeninone (2 mg/mouse) for a positive control group was administered orally three times a week for 14 days. On the 21st day of the induction with BLM, mice were sacrificed to obtain the bronchoalveolar lavage fluid and the lung tissue, which were used in the next analysis.

BALB/c mice = assay: LPS-induced acute lung inflammation model, ELISA of pro-inflammatory proteins in BALF; format: in vivo; settings: BALB/c female mice, LPS 10 μg intranasal, peptide 0.5 mg, 1 mg intranasal, 24 hours (FIG. 11a-11d)
Description: BALB/c mice (Female/7W) were used in animal experiments, and an acute lung inflammation model was established by injection of LPS. As shown in [Table 5] below, 7-week-old BALB/c female mice were divided into 5 groups of 5 mice each, and then the experiment was carried out. On the 1st day, LPS (10 μg/50 μl/mouse) was administered intranasally to the G2 to G5 groups. 1 hour after LPS administration, the G3 and G4 groups were subjected to intranasal administration with the peptide of Production Example 1 (0.5 mg, 1 mg), and the G5 positive control group was subjected to intraperitoneal administration with Dexamethasone (100 μg). 24 hours after the administration of the active substance and the drug, the mice were sacrificed to obtain the bronchoalveolar lavage fluid and the lung tissue, which were used in the next analysis.
The collected BALF was subjected to the ELISA analysis of pro-inflammatory proteins. The supernatant obtained by centrifuging the collected BALF at 3,000 rpm for 10 minutes was subjected to analysis using a TNF-α Quantikine ELISA kit (R&D systems), an IL-1β Quantikine ELISA kit (R&D systems), an IL-6 Quantikine ELISA kit (R&D systems), and a Myeloperoxidase (MPO) Quantikine ELISA Kit (R&D systems) according to the instructions for use, and then the absorbance was measured at 450 nm using a microplate reader.

A549 cells = assay: Inhibition of inflammatory cytokine gene expression induced by IL-1β, RT-PCR, A549 cells; format: cell-based, human; settings: IL-1β 2 ng/ml, peptide 10, 50, 100, 500 μM, 3 hours, RT-PCR (FIG. 8)
Description: A549 cells (human alveolar basal epithelial cells) were seeded at 3×10^5 cells/well in a 6-well plate and used in the experiment. After culturing for 1 day with a culture medium containing 10% FBS, the culture medium was replaced with a culture medium without containing FBS to induce starvation for 4 hours. A normal group without being treated with any substances, a group treated with IL-1β (2 ng/ml) (negative control group), groups treated with IL-1β (2 ng/ml) and the peptide of Production Example 1 (10, 50, 100, 500 μM), and a group treated with IL-1β (2 ng/ml) and 10 μM of Dexamethasone (DEX) (positive control group) were treated with the above-described active substances and drugs respectively, and then RNA was extracted after 3 hours to carry out RT-PCR. RNA was extracted from the A549 cells in each of the above groups using an easy-BLUE™ Total RNA extraction kit (Qiagen, Germany). The extracted RNA was converted into cDNA with RT-PCR premix (iNtRON Biotechnology, Seongnam, Korea). After preparing a reaction mixture with PCR premix (iNtRON Biotechnology, Seongnam, Korea) and primers for each gene, PCR was carried out using a PCR machine (Eppendorf, Germany). Next, the mRNA expression pattern was determined by agarose gel electrophoresis. The base sequences of the primers used in the experiment are as shown in [Table 2].

## KYLLVHRPYYRR [peptide of Production Example 1]
MRC-5 cells
  expression of IL-1β (protein): decreased again the expression of IL-1β, IL-6, pJNK, and pERK in a concentration-dependent manner
  expression of IL-6 (protein): decreased again the expression of IL-1β, IL-6, pJNK, and pERK in a concentration-dependent manner
  expression of pERK: decreased again the expression of IL-1β, IL-6, pJNK, and pERK in a concentration-dependent manner
  expression of pJNK: decreased again the expression of IL-1β, IL-6, pJNK, and pERK in a concentration-dependent manner
[1]
  body weight: recovered again
BALB/c mice
  expression level of IL-1β in BALF (ELISA): reduced the increased expression levels of the cytokines in a concentration-dependent manner
  expression level of IL-6 in BALF (ELISA): reduced the increased expression levels of the cytokines in a concentration-dependent manner
  expression level of Myeloperoxidase (MPO) in BALF (ELISA): reduced the increased expression levels of the cytokines in a concentration-dependent manner
  expression level of TNF-α in BALF (ELISA): reduced the increased expression levels of the cytokines in a concentration-dependent manner
A549 cells
  gene expression level of COX-2: decreases in a concentration-dependent manner
  gene expression level of IL-1β: decreases in a concentration-dependent manner
  gene expression level of IL-6: decreases in a concentration-dependent manner
  gene expression level of IL-8: decreases in a concentration-dependent manner
  gene expression level of TNF-α: decreases in a concentration-dependent manner
